{"source": "paper PMC7181660", "about": "“A novel specific PERK activator reduces toxicity and extends survival in Huntington's disease models” (Scientific Reports, 2020)", "key": {"GADD34 mRNA": {"tested_on": "GADD34 mRNA", "test": "GADD34 mRNA by qPCR in STHdh^Q7/7 and STHdh^Q111/111 cells", "format": "cell-based, murine", "conditions": "both cell types, qPCR vs GAPDH", "experimental": "Total cell RNA was extracted with TRIzol reagent (Invitrogen) according to the manufacturer's instructions. Reverse transcription (RT) was performed with QuantaBio qScript cDNA synthesis kit. Real-time qPCR was carried out using a CFX Connect Real-Time PCR Detection System (BioRad) and the amplifications were done using the SYBR Green PCR Master Mix (pcrbio). Reactions were run in triplicates in three independent experiments. Housekeeping gene GAPDH was used as an internal control to normalize the variability of expression levels."}, "eIF2α-P": {"tested_on": "eIF2α-P", "test": "Brain striatum immunofluorescence of eIF2α-P / total eIF2α", "format": "in vivo, mice", "conditions": "week 4 after pump implantation", "experimental": "Under anesthesia, animals were perfused with 4% PFA (formaldehyde in phosphate-buffered saline (PBS)) and the brains were removed and soaked in 4% PFA overnight. Then, brains were incubated overnight in 30% sucrose solution and frozen in OCT compound Tissue-Tek by using dry ice. Sections (10 µm) of the striatum were obtained by cryostat. Brain sections were processed for immunochemistry with the kind help of Daniel Frenkel. They were washed with PBS for 10 minutes, incubated in 0.5% triton-X-100 for 10 minutes and then in blocking solution containing 1% bovine serum albumin (BSA), 10% normal goat serum and 0.25% triton for one hour at room temperature. The samples were rinsed with PBS and incubated overnight at 4 °C with the selected primary antibody diluted in blocking solution (eIF2α-mouse [1:400] and phosphorylated eIF2α-rabbit [1:400]). […] After washing with PBS, samples were placed in DAPI (4′,6-diamidino-2-phenylindole) diluted in PBS for 10 minutes, mounted and examined by confocal microscope Zeiss LSM-510, 3 slides were analysed from each subject.\nSignal quantification and cell counting were done using the ImageJ program. The value obtained for the phosphorylated eIF2α signal was divided by the total eIF2α signal in the same image. […] Statistical significance was determined at P < 0.05."}, "WT MEF cells": {"tested_on": "WT MEF cells", "test": "Rescue from tunicamycin-induced apoptosis in WT MEFs", "format": "cell-based", "conditions": "Mus musculus, MEF; WT MEFs treated with Tun; read-out: IC50 for inhibition of apoptosis", "experimental": "STHdh^Q111/111 cells (used before[13]) or PERK+/+ or PERK−/− MEFs (kindly provided by David Ron, Univ. Cambridge) were incubated with Tun (10 μg/ml) for 48 h, which results in ER stress-induced cell death. Cells under the same conditions were incubated for the same times, together with Tun, with increasing concentrations of the different PERK modulators (0–120 μM) and the percent of apoptotic cells was measured by FACS cell cycle progression using propidium iodide (PI), considering the fraction beneath G0/G1. The relative apoptosis rate was calculated to be able to compare between compounds and experiments, where for each concentration curve the percent of apoptotic cells was considered 100 at concentration 0 of the PERK modulator, with only Tun. The graphs show the average relative apoptosis rate of at least 3 independent experiments for each compound.\nCells were washed with PBS and fixed with cold methanol. Before FACS analysis cells were washed with PBS, followed by addition of propidium iodide (PI) solution (10 μg/ml) and analysis by flow cytometry. Cells in sub-G0/G1 were counted as apoptotic/ dead."}, "EIF2AK1 (HRI)": {"target": "EIF2AK1 (HRI) (Homo sapiens, UniProt Q9BQI3)", "sequence (Q9BQI3 whole entry)": "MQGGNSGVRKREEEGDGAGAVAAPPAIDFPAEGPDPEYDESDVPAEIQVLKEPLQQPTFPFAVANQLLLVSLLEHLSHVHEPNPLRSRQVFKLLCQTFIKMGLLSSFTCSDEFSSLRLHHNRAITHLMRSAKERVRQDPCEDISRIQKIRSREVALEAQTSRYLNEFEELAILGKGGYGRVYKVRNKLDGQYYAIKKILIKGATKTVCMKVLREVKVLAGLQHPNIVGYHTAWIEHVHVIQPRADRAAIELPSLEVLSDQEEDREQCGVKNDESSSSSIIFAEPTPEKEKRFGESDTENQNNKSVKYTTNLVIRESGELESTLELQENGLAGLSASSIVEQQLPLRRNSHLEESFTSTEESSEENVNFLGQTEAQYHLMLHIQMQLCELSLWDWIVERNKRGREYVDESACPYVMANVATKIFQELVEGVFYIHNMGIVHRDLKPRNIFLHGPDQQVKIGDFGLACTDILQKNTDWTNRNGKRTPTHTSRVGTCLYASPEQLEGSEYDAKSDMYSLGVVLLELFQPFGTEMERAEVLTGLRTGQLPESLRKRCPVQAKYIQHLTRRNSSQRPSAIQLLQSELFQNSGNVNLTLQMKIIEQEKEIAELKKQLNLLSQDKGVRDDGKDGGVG", "test": "In vitro HotSpot kinase assay on HRI", "format": "biochemical", "experimental": "In vitro kinase assays with purified components and full kinase panel analysis was done at Reaction Biology Corp. (Malvern, PA, USA) using the HotSpot Kinase Assay. Reactions were performed for 20 min at room temp. using ^33P-ATP (Specific activity 10 μCi/μl) with 1 μM total ATP, 20 μM substrate and kinases in the nanomolar range in 20 mM Hepes (pH 7.5), 10 mM MgCl2, 1 mM EGTA, 0.02% Brij35, 0.02 mg/ml BSA, 0.1 mM Na3VO4, 2 mM DTT, 1% DMSO and other required factors depending on the assayed kinase."}, "R6/2 HD mouse model [1]": {"tested_on": "R6/2 HD mouse model", "test": "Combined phenotype score (hind limb clasping, ledge, gait, kyphosis)", "format": "in vivo, mice", "conditions": "R6/2 TG, 1 mg/kg subcutaneous 28 days", "experimental": "[…]. Measures include hind limb clasping, ledge test, gait and kyphosis. See detailed information in Supplementary methods.\nGroup # Animals # Treatment Volume bleeding and\nDetermination of MK-28 levels in the plasma and brain were performed by LC/MS/MS using\ngeneric methods in the bioanalytical lab of WuXi AppTec Co., Ltd. (Shanghai, China). The\nMK-28 concentrations were determined in the plasma and whole perfused brain tissues of the\nanimals following a single IP injection of 10 mg/kg.\nCombined phenotype: A method assessing a combination of different disease -phenotypes\nwas used to evaluate disease progression. Phenotypic evaluation includes hind-limb\nclasping, ledge test, gait and kyphosis. Limb clasping: hind-limb clasping behavior was\nevaluated and different scores were given based on their performance on a scale from 0 to 3: 0\n= normal; 1 = clasps hind-limb s within 30s of being suspended in the air; 2 = cla sps hind-limb s\nwithin 5s, recovering when released after 30s; 3 = clasps hind-limbs within 5s and has difficulty\nrecovering when released after 30s. Ledge test: The ledge test evaluates motor coordination by\nplacing mice on the ledge of the cage. Typically, mice will walk along the ledge and attempt\nto descend back into the cage. Walking without losing balance is considered normal and\nassigned a score of 0. A score of 1 is given if the mouse misse s its footing while walking. If […]"}, "R6/2 HD mouse model [2]": {"tested_on": "R6/2 HD mouse model", "test": "Ultrasonic vocalizations", "format": "in vivo, mice", "conditions": "R6/2 TG males", "experimental": "Ultrasonic vocalizations were recorded on males during the first 5 minutes of female exposure, 12 weeks after birth. Vocal emissions were monitored by an UltraSoundGate Condenser Microphone (CM 16; Avisoft Bioacoustics, Berlin, Germany) placed 16 cm above the floor of each male's cage. […]. […] Spectrograms were produced at 586 Hz of frequency resolution and 0.427 ms of time resolution. Figure plotted by MATLAB code."}}}
{"smiles": "CN(/N=C\\c1ccc(O)c(O)c1)c1nc(-c2ccccc2)cc(-c2ccccc2)n1", "note": "[MK-28]", "values": [{"measurement": "increase of GADD34 mRNA levels", "setting": "GADD34 mRNA", "value": "≤ 5", "unit": "fold"}, {"measurement": "increase of eIF2α-P levels in striatum", "setting": "eIF2α-P; TG mice", "value": "~ 6 fold"}, {"measurement": "increase of eIF2α-P levels in striatum", "setting": "eIF2α-P; WT mice", "value": "~ 7 fold"}, {"measurement": "IC50", "setting": "WT MEF cells", "value": 1700, "unit": "nM"}, {"measurement": "effect on EIF2AK1 (HRI) activity", "setting": "EIF2AK1 (HRI)", "value": "little or no effect"}, {"measurement": "composite phenotype score", "setting": "R6/2 HD mouse model [1]; week 6", "value": "3.14 ± 1.41"}, {"measurement": "composite phenotype score", "setting": "R6/2 HD mouse model [1]; week 8", "value": "4.4 ± 0.55"}, {"measurement": "vocalizations", "setting": "R6/2 HD mouse model [2]; 12 weeks after birth", "value": 16, "unit": "syllables in 5 min"}, {"measurement": "increase of vocalizations vs untreated TG", "setting": "R6/2 HD mouse model [2]; p = 0.059", "value": "three-fold increase"}]}
